US20020049223A1, “Quinoline and naphthyridine carboxylic acid antibacterials” (priority 1999, published 2002)

Legend:
Assay in all cases: Assay B: in vitro antibacterial activity, broth microdilution MIC (NCCLS)
Assay type in all cases: cell-based
[1] = system: Haemophilus influenzae DILL AMP R; conditions: Table 2, Assay B, Mueller Hinton broth with yeast extract, hematin and NAD, 20 to 24 hr; code E = Haemophilus influenzae DILL AMP R; unit assumed
Outline: (§1)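 MIC is the lowest concentration with no visible growth after serial two-fold dilution in cation-adjusted Mueller Hinton broth, approximately 5×10^5 CFU/mL inoculum, 16-20 h at 35 °C in air (NCCLS). Broth for H. influenzae gets 5 g/L yeast extract, 0.3 mmol/L hematin and 15 mg/L NAD, for S. pneumoniae 3% lysed horse blood; both incubated 20-24 h.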

[2] = system: Streptococcus pneumoniae ATCC 6303; conditions: Table 2, Assay B, Mueller Hinton broth with 3% lysed horse blood, 20 to 24 hr; code F = Streptococcus pneumoniae ATCC 6303; unit assumed
Outline: as §1

[3] = system: Enterococcus faecalis PIU 1967; conditions: Table 2, Assay B, cation-adjusted Mueller Hinton broth, 35° C., 16 to 20 hr; code B = Enterococcus faecalis PIU 1967; unit assumed
Outline: as §1

Escherichia coli JUHL = conditions: Table 2, Assay B, cation-adjusted Mueller Hinton broth, 35° C., 16 to 20 hr; code D = Escherichia coli JUHL; unit assumed
Outline: as §1

[4] = system: Staphylococcus aureus ATCC 6538P; conditions: Table 2, Assay B, cation-adjusted Mueller Hinton broth, 35° C., 16 to 20 hr; code A = Staphylococcus aureus ATCC 6538P; unit assumed
Outline: as §1

| Antibacterial Activity (MIC's), E [1] | Antibacterial Activity (MIC's), F [2] | Antibacterial Activity (MIC's), B [3] | Antibacterial Activity (MIC's), D (Escherichia coli JUHL) | Antibacterial Activity (MIC's), A [4] | SMILES |
| --- | --- | --- | --- | --- | --- |
| 0.015 mg/L | 0.03 mg/L | 0.03 mg/L | 0.125 mg/L | 0.015 mg/L | COc1c(-c2cc3c(s2)CCCC3N)c(F)cc2c(=O)c(C(=O)O)cn(C3CC3)c12.Cl (stereo not drawn) [Example 224, 7-(4-amino-4,5,6,7-tetrahydro-1-benzothien-2-yl)-1-cyclopropyl-6-fluoro-8-methoxy-4-oxo-1,4-dihydro-3-quinolinecarboxylic acid hydrochloride] |
| ≤ 0.004 mg/L | 0.03 mg/L | 0.008 mg/L | 0.015 mg/L | ≤ 0.004 mg/L | O=C(O)c1cn(C2CC2)c2cc(-c3cc4c(s3)C(O)CCC4)c(F)cc2c1=O (stereo not drawn) [Example 293, 1-cyclopropyl-6-fluoro-7-(7-hydroxy-4,5,6,7-tetrahydro-1-benzothien-2-yl)-4-oxo-1,4-dihydroquinoline-3-carboxylic acid] |
| 0.06 mg/L | 0.125 mg/L | 0.125 mg/L | 0.5 mg/L | 0.008 mg/L | COc1c(-c2cc3c(s2)CCCC3=NN2CCOCC2)ccc2c(=O)c(C(=O)O)cn(C3CC3)c12 [Example 68, 1-cyclopropyl-8-methoxy-7-((4E/Z)-4-(4-morpholinvlimino)-4,5,6,7-tetrahydro-1-benzothien-2-yl)-4-oxo-1,4-dihydro-3-quinolinecarboxylic acid] |
| 0.008 mg/L | 0.03 mg/L | 0.06 mg/L | 0.03 mg/L | 0.015 mg/L | Cl.NC1CCCc2cc(-c3ccc4c(=O)c(C(=O)O)cn(C5CC5)c4c3Cl)sc21 (stereo not drawn) [Example 330, 7-(7-amino-4,5,6,7-tetrahydro-1-benzothien-2-yl)-8-chloro-1-cyclopropyl-4-oxo-1,4-dihydroquinoline-3-carboxylic acid hydrochloride] |
| 0.25 mg/L | 0.125 mg/L | 0.25 mg/L | 0.5 mg/L | 0.03 mg/L | CC1(C)CCc2cc(-c3cc4c(cc3F)c(=O)c(C(=O)O)cn4C3CC3)sc2C1O (stereo not drawn) [Example 342, 1-cyclopropyl-6-fluoro-7-(7-hydroxy-6,6-dimethyl-4,5,6,7-tetrahydro-1-benzothien-2-yl)-4-oxo-1,4-dihydroquinoline-3-carboxylic acid] |
| 0.015 mg/L | 0.06 mg/L | 0.125 mg/L | 0.25 mg/L | 0.015 mg/L | O=C(O)c1cn(C2CC2)c2c(OC(F)F)c(-c3cc4c(s3)CCCC4O)ccc2c1=O (stereo not drawn) [Example 99, 1-cyclopropyl-8-(difluoromethoxy)-7-(4-hydroxy-4,5,6,7-tetrahydro-1-benzothien-2-yl)-4-oxo-1,4-dihydro-3-quinolinecarboxylic acid] |
| 0.03 mg/L | 0.125 mg/L | 0.5 mg/L | 0.125 mg/L | 0.015 mg/L | COc1c(-c2cc3c(s2)C(N)C(F)CC3)ccc2c(=O)c(C(=O)O)cn(C3CC3)c12.Cl (stereo not drawn) [Example 237, 7-(7-amino-6-fluoro-4,5,6,7-tetrahydro-1-benzothien-2-yl)-1-cyclopropyl-8-methoxy-4-oxo-1,4-dihydro-3-quinolinecarboxylic acid hydrochloride] |
| 0.25 mg/L | 0.125 mg/L | 0.25 mg/L | 2 mg/L | 0.03 mg/L | CON=C1CCCc2sc(-c3ccc4c(=O)c(C(=O)O)cn(C5CC5)c4c3OC)cc21 [Example 64, 1-cyclopropyl-8-methoxy-7-((4E/Z)-4-(methoxyimino)-4,5,6,7-tetrahydro-1-benzothien-2-yl)-4-oxo-1,4-dihydro-3-quinolinecarboxylic acid] |
| 1 mg/L | 4 mg/L | 1 mg/L | 16 mg/L | 1 mg/L | COc1c(-c2cc3c(s2)S(=O)(=O)CCC3O)ccc2c(=O)c(C(=O)O)cn(C3CC3)c12 (stereo not drawn) [Example 135, 1-cyclopropyl-7-(4-hydroxy-7,7-dioxido-5,6-dihydro-4H-thieno[2,3-b]thiopyran-2-yl)-8-methoxy-4-oxo-1,4-dihydro-3-quinolinecarboxylic acid] |
| 0.06 mg/L | 0.25 mg/L | 0.125 mg/L | 0.5 mg/L | ≤ 0.004 mg/L | COc1c(-c2cc3c(s2)C(O)C2(CC3)CC2)ccc2c(=O)c(C(=O)O)cn(C3CC3)c12 (stereo not drawn) [Example 267, 7-(7-hydroxy-6-spirocyclopropyl-4,5,6,7-tetrahydro-1-benzothien-2-yl)-1-cyclopropyl-8-methoxy-4-oxo-1,4-dihydroquinoline-3-carboxylic acid] |
| 0.125 mg/L | 0.25 mg/L | 0.5 mg/L | 2 mg/L | 0.03 mg/L | COC(=O)NC1Cc2cc(-c3ccc4c(=O)c(C(=O)O)cn(C5CC5)c4c3OC)sc2C1 (stereo not drawn) [Example 251, 1-cyclopropyl-8-methoxy-7-(5-((methoxvycarbonyl)amino)-5,6-dihydro-4H-cyclopenta[b]thien-2-yl)-4-oxo-1,4-dihydro-3-quiunolinecarboxylic acid] |
| ≤ 0.004 mg/L | ≤ 0.004 mg/L | 0.015 mg/L | ≤ 0.004 mg/L | ≤ 0.004 mg/L | Cl.NC1CCCc2cc(-c3nc4c(cc3F)c(=O)c(C(=O)O)cn4C3CC3)sc21 (stereo not drawn) [Example 271, 7-(7-amino-4,5,6,7-tetrahydro-1-benzothien-2-yl)-1-cyclopropyl-6-fluoro-4-oxo-1,4-dihydro-1,8-naphthyridine-3-carboxylic acid hydrochloride] |
| 0.015 mg/L | 0.25 mg/L | 0.5 mg/L | 0.125 mg/L | 0.125 mg/L | COc1c(-c2cc3c(s2)C(O)CNC3)ccc2c(=O)c(C(=O)O)cn(C3CC3)c12 (stereo not drawn) [Example 202, 1-cyclopropyl-7-(7-hydroxy-4,5,6,7-tetrahydrothieno[3,2-c]pyridin-2-yl)-8-methoxy-4-oxo-1,4-dihydro-3-quinolinecarboxylic acid] |
| 0.06 mg/L | 0.125 mg/L | 0.25 mg/L | 0.5 mg/L | 0.015 mg/L | COc1c(-c2cc3c(s2)CCCC3=NN2CCCC2)ccc2c(=O)c(C(=O)O)cn(C3CC3)c12 [Example 74, 1-cyclopropyl-8-methoxy-4-oxo-7-((4E/Z)-4-(1-pyrrolidinylimino)-4,5,6,7-tetrahydro-1-benzothien-2-yl)-1,4-dihydro-3-quinolinecarboxylic acid] |
| 0.015 mg/L | 0.008 mg/L | 0.03 mg/L | 0.125 mg/L | ≤ 0.004 mg/L | CNC1CCCc2sc(-c3c(F)c(N)c4c(=O)c(C(=O)O)cn(C5CC5)c4c3F)cc21.Cl (stereo not drawn) [Example 346, 5-amino-1-cyclopropyl-6,8-difluoro-7-(4-(methylamino)-4,5,6,7-tetrahydro-1-benzothien-2-yl)-4-oxo-1,4-dihydroquinoline-3-carboxylic acid hydrochloride] |
| 0.03 mg/L | 0.06 mg/L | 0.06 mg/L | 0.5 mg/L | 0.015 mg/L | COc1c(-c2cc3c(s2)CCCC3=NOCc2ccccc2)ccc2c(=O)c(C(=O)O)cn(C3CC3)c12 [Example 73] |
| 0.03 mg/L | 0.25 mg/L | 0.5 mg/L | 0.25 mg/L | 0.125 mg/L | COc1c(-c2cc3c(s2)CNCC3O)ccc2c(=O)c(C(=O)O)cn(C3CC3)c12 (stereo not drawn) [Example 209, 1-cyclopropyl-7-(4-hydroxy-4,5,6,7-tetrahydrothieno[2,3-c]pyridin-2-yl)-8-methoxy-4-oxo-1,4-dihydro-3-quinolinecarboxylic acid] |
| 1 mg/L | 1 mg/L | 1 mg/L | 1 mg/L | 0.5 mg/L | COc1c(-c2cc3c(s2)CCCC3NC2CCN(C)CC2)ccc2c(=O)c(C(=O)O)cn(C3CC3)c12.Cl.Cl (stereo not drawn) [Example 133, 1-cyclopropyl-8-methoxy-7-(4-((1-methyl-4-piperidinyl)amino)-4,5,6,7-tetrahydro-1-benzothien-2-yl)-4-oxo-1,4-dihydro-3-quinolinecarboxylic acid dihydrochloride] |
